In US6548042B2, “Bis-phosphonate compounds” (priority 2000, dated 2003):
Where two headings read alike, the source gives them in different places. Each block holds one compound with its values, some of them ahead of it.

How the values were obtained:
[1] = Biodistribution of i.v. administered radioiodinated compounds in balb/c mice; settings: for Bone-seeking properties: mouse, in vivo; for Discomfort or toxicity after administration of samples: single bolus tail vein injection, 100 μl;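 on all read-outs here: healthy mice given radioiodinated bisphosphonic acids, with randomly chosen groups of three animals per time point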
Protocol: Mice. Samples of 100 μl containing 50,100, 400, 140 or 45 KBq of 31a, 34a, 46a, 67a or 72a, respectively, were injected into the tail veins as single bolus injections. […] At 0.5 h, 2 h, 5 h and 24 h postinjection times the animals were sacrificed; except in the case of the phosphate phosphonate derivative 31 were the animals were sacrificed 0.25 h, 2 h, 5 h and 24 h postinjection. Randomly selected groups of three animals were used at each time point. The whole animals were weighed and dissected. The excised organs, i.e. femur, skull, blood, heart, lung, liver, kidney, spleen, stomach, large intestine and small intestine, were weighed separately prior to counting.
Radioactivity measurements of the labelled compounds were carried out with a liquid scintillation counter (Beckman LS 6500, Beckman Instruments, USA) or with a Capintec CRC-7R radioisotope calibrator (Capintec, USA). The radioactivity level of the excised organs was measured with an automated gamma counter (LKB Wallac 1282, Turku, Finland).

OHS cells = settings: 60 days; ^153Sm-EDTMP 800 MBq/kg, ^89Sr 20 MBq/kg, ifosfamide 150 mg/kg; cited from earlier work
MT-1 cells = settings: repeated treatments (days 7 and 14); cited from earlier work
[2] = Swiss Webster mice, 20-25 g, 47 h; cited from earlier work
[3] = Sprague-Dawley rats, 220 g, 24 h; cited from earlier work
[4] = balb/c mice, 19-22 g, cited from earlier work

- Uptake in femur ([1]; 2 h postinjection (peak), i.v.): 21±4 % ID/g
- Uptake in femur ([1]; 24 h postinjection, i.v.): 15±5 % ID/g
Compound: O=P(O)(O)C(Cc1ccccc1)P(=O)(O)O [2h, phenylethylidenebisphosphonic acid]

Compound: O=P(O)(O)C(Cc1cccc([125I])c1)P(=O)(O)O [34a, m-[^125I and ^131I]-iodophenylethylidene-1,1-bisphosphonic Acid]
- Uptake in femur ([1]; 0.5 h (30 min) postinjection, i.v.): 18.8±0.51 % ID/g
- Activity in blood ([1]; 0.5 h postinjection, i.v.): 2.22±0.31 % ID/g
- Uptake in kidneys ([1]; 0.5 h postinjection, i.v.): 8.23±6.39 % ID/g
- Uptake in skull ([1]; 0.5 h postinjection, i.v.): 10.28±2.58 % ID/g
- Femur to soft tissue ratio ([1]; 24 h, soft tissue with highest uptake): > 14
- Uptake in femur ([1]; 24 h postinjection, i.v.): 15.25±4.89 % ID/g
- Uptake in kidneys ([1]; 24 h postinjection, i.v.): 1.06±0.10 % ID/g
- Uptake in skull ([1]; 24 h postinjection, i.v.): 7.13±2.73 % ID/g
- Bone-seeking properties [1]: potent bone-seekers
- Discomfort or toxicity after administration of samples [1]: No sign of discomfort or toxicity was observed

Compound: O=P(O)(O)C(NCCc1cccc([131I])c1)P(=O)(O)O [67a, N-(m-[^131I]-iodophenylethyl)aminomethylene-bisphosphonic acid]
- Uptake in femur ([1]; 24 h postinjection, i.v.): 1.39±0.43 % ID/g
- Uptake in liver ([1]; 24 h postinjection, i.v.): 5.57±0.79 % ID/g
- Uptake in skull ([1]; 24 h postinjection, i.v.): 0.91±0.08 % ID/g
- Uptake in spleen ([1]; 24 h postinjection, i.v.): 2.49±0.37 % ID/g
- Bone-seeking properties [1]: lack bone seeking properties
- Discomfort or toxicity after administration of samples [1]: No sign of discomfort or toxicity was observed

Compound: O=P(O)(O)C(CCc1cccc([131I])c1)P(=O)(O)O [72a, 3-(m-iodo-[^131I and ^125I]-phenyl)propylidene-1,1-bisphosphonic acid]
- Uptake in femur ([1]; 24 h postinjection, i.v.): 8.84±0.97 % ID/g
- Uptake in kidneys ([1]; 24 h postinjection, i.v.): 0.85±0.08 % ID/g
- Uptake in liver ([1]; 24 h postinjection, i.v.): 0.35±0.06 % ID/g
- Uptake in skull ([1]; 24 h postinjection, i.v.): 10.36±4.26 % ID/g
- Bone-seeking properties [1]: potent bone-seekers
- Discomfort or toxicity after administration of samples [1]: No sign of discomfort or toxicity was observed

Compound: [89Sr] [^89Sr]
- Survival rate / disease-free rats (OHS cells): 20%
- Surviving / disease-free rats of rats treated (OHS cells): 2 of 10

Compound: N.N.[Cl][Pt][Cl] [cisplatin]
- Effect on the metastatic growth (MT-1 cells): nor did they have any significant effect on the metastatic growth
- Survival after repeated treatments (MT-1 cells): have not improved survival

Compound: O=P(O)(O)C(O)(c1cccc(I)c1)P(=O)(O)O [compound 2]
- Ratio between uptake in femur and stomach [2]: 1.7 (femur/stomach, Swiss Webster
- Uptake in femur expressed as % gram dose per gram tissue [2]: 299 (Swiss Webster mice, 20-25 g, 47 h) % gram dose per gram tissue
- Uptake in stomach [2]: 7.65 ± 0.02 % ID/g
- Uptake in the thyroid [2]: 0.414 ± 0.147 % injected dose/organ

Compound: O=P(O)(O)C(c1ccc(O)c(I)c1)P(=O)(O)O [compound 3]
- Ratio between uptake in femur and kidney [3]: 1.5 (femur/kidney, Sprague-Dawley
- Uptake in femur expressed as % gram dose per gram tissue [3]: 438 (Sprague-Dawley rats, 220 g, 24 h) % gram dose per gram tissue
- Uptake in the thyroid [3]: 3829 (% ID/g,

Compound: O=C(NCCC(O)(P(=O)(O)O)P(=O)(O)O)c1cccc(I)c1 [compound 4]
- Uptake in femur expressed as % gram dose per gram tissue ([4]; 2 h): 702 (balb/c mice, 19-22 g, 2 h) % gram dose per gram tissue
- Ratio between uptake in femur and spleen ([4]; 24 h): 3.2 (femur/spleen, balb/c mice,
- Uptake in stomach ([4]; 24 h): 0.93 ± 0.95 % ID/g
- Uptake in the thyroid ([4]; 24 h): 0.45 ± 0.36 % injected dose/organ

Compound: COc1cccc2c1C(=O)c1c(O)c3c(c(O)c1C2=O)C[C@@](O)(C(=O)CO)C[C@@H]3O[C@H]1C[C@H](N)[C@H](O)[C@H](C)O1 [doxorubicin]
- Effect on the metastatic growth (MT-1 cells): nor did they have any significant effect on the metastatic growth
- Survival after repeated treatments (MT-1 cells): have not improved survival

Compound: O=P1(NCCCl)OCCCN1CCCl (stereo not drawn) [ifosfamide]
- Survival rate / disease-free rats (OHS cells): 20%
- Surviving / disease-free rats of rats treated (OHS cells): 3 of 15

Compound: ^153Sm-EDTMP
- Survival rate / disease-free rats (OHS cells): 62%
- Surviving / disease-free rats of rats treated (OHS cells): 8/13
